Experimental data published in paper PMC4176347, “Zinc finger oxidation of Fpg/Nei DNA glycosylases by 2-thioxanthine: biochemical and X-ray structural characterization” (Nucleic Acids Research, 2014).

Tests used:
EcNei [1] = molecular target: T1, EcNei (Escherichia coli, UniProt P50465); test: PAR assay, 2TX-induced Zn2+ release, A500; type: binding; details: free enzyme without DNA; 5 μM enzyme, 10 mM 2TX, 100 μM PAR, 25 mM Hepes/KOH pH 7.5, 70 mM KCl, 8% DMSO, room temperature; covalent
T1 construct: gene nei; full-length, C-terminal 6His-tag, pET22b derivative, expressed in E. coli BL21(DE3)
T1 sequence (P50465 2-263): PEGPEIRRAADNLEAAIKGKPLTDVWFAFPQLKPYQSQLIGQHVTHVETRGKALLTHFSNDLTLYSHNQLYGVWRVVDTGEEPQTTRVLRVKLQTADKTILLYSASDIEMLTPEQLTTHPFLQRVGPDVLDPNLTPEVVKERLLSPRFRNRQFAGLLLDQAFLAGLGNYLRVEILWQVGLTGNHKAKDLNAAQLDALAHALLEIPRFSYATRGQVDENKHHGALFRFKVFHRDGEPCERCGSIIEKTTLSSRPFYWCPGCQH
Text: PAR assay, 2TX-induced Zn2+ release, A500 on EcNei

hNEIL2 [2] = molecular target: T2, hNEIL2 (Homo sapiens, UniProt Q969S2); test: PAR assay, 2TX-induced Zn2+ release, A500; type: binding; details: free enzyme without DNA; 5 μM enzyme, 10 mM 2TX, 100 μM PAR, 25 mM Hepes/KOH pH 7.5, 70 mM KCl, 8% DMSO, room temperature; covalent
T2 construct: gene NEIL2; 6His-hNEIL2 fusion, vector pPR363, expressed in E. coli BL21CodonsPlus; CHC2-type zinc finger
T2 sequence (Q969S2 1-332): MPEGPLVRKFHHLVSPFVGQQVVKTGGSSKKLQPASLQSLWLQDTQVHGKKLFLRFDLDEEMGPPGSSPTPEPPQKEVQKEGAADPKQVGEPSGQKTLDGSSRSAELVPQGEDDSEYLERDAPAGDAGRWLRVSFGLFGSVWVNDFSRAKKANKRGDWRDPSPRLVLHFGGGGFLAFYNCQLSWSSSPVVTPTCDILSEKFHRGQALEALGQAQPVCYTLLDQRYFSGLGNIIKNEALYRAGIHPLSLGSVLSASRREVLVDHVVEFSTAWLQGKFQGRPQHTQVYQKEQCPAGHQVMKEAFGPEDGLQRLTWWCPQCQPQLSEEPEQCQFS
Text: PAR assay, 2TX-induced Zn2+ release, A500 on hNEIL2

LlFpg [3] = molecular target: T3, LlFpg (Lactococcus cremoris, UniProt P42371); test: X-ray crystal structures of LlFpg/DNA treated with 2TX ([…] Å THF-DNA; […] Å Bz-cFapyG-DNA); type: binding; details: covalent disulfide to C248 (THF-DNA) or C268 (Bz-cFapyG-DNA); stacks on W179; outside active site; zinc lost
T3 construct: gene mutM; full-length recombinant from pFlag-CTC-WT-LlFpg, E. coli BH540 (fpg mutY) host, purified to homogeneity; zinc finger C245/C248/C265/C268
T3 sequence (P42371 2-273): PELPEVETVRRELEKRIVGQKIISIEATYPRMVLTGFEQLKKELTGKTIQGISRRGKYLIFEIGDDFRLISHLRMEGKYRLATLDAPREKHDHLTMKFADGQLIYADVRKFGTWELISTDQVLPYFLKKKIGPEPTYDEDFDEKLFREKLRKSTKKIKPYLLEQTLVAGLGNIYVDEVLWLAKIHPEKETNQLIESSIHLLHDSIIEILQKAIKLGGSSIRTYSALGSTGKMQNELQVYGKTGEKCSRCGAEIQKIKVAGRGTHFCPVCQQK

LlFpg [4] = molecular target: T3, LlFpg; test: PAR assay, 2TX-induced Zn2+ release, A500; type: binding; details: free enzyme without DNA; 5 μM enzyme, 10 mM 2TX, 100 μM PAR, 25 mM Hepes/KOH pH 7.5, 70 mM KCl, 8% DMSO, room temperature; covalent
Text: PAR assay, 2TX-induced Zn2+ release, A500 on LlFpg

LlFpg [5] = molecular target: T3, LlFpg; test: 8-oxoG-DNA glycosylase assay, […]-labelled 24-mer, gel; type: biochemical; details: 5 nM enzyme, 25 nM 8-oxoG-DNA, 0-250 μM 2TX, 30 min, 37°C, 8% DMSO
hNEIL2 [6] = molecular target: T2, hNEIL2; test: Hyd-DNA glycosylase assay, […]-labelled 24-mer, Urea-PAGE; type: biochemical; details: Hyd single-stranded DNA, 30 min, 37°C, 8% DMSO
EcNei [7] = molecular target: T1, EcNei; test: as above; type: biochemical; details: Hyd:G double-stranded DNA, 30 min, 37°C, 8% DMSO
[8] = molecular target: T4, LlFpg WT (Lactococcus lactis) (UniProt P42371); test: EMSA; details: apparent Kd, N at position 7 of strand 1 = tetrahydrofuran (THF) abasic site analogue, opposite C, EMSA: 0.1 nM 32P-labelled 14-mer THF-DNA, 0-16 nM LlFpg (2 nM in 2TX assays), 20 min at 4 C / on ice, with or without 8% DMSO, buffer and pH as in cited …
T4 sequence: T3 sequence (P42371 2-273)

Molecule	kobs (min^-1)^a / - DNA (EcNei [1]) [min⁻¹]	kobs (min^-1)^a / - DNA (hNEIL2 [2]) [min⁻¹]	X-ray crystal structures of LlFpg/DNA treated with 2TX (2.4 Å THF-DNA); 2.1 Å Bz- (LlFpg [3])	kobs (min^-1)^a / - DNA (LlFpg [4]) [min⁻¹]	8-oxoG-DNA glycosylase assay, 32P-labelled 24-mer, gel (LlFpg [5])	Hyd-DNA glycosylase assay, 32P-labelled 24-mer, Urea-PAGE (hNEIL2 [6])	Hyd-DNA glycosylase assay, 32P-labelled 24-mer, Urea-PAGE (EcNei [7])	Kd ([8]; 8% DMSO) [nM]	Kd ([8]; without DMSO) [nM]
O=c1[nH]c(=S)[nH]c2nc[nH]c12 [2TX, 2-thioxanthine]	0.296 ± 0.001	0.180 ± 0.002	a 2TX molecule covalently bound to C268 was easily modeled in the electron density map	0.073 ± 0.001	excision of 8-oxoG from 24-mer DNA duplex (Supplementary Figure S2) by LlFpg was inhibited	The Hyd-DNA glycosylase activity of EcNei and hNEIL2 were also strongly inhibited by 2TX	The Hyd-DNA glycosylase activity of EcNei and hNEIL2 were also strongly inhibited by 2TX		
CTCTTTNTTTCTCG / GCGAGAAACAAAGA [14-mer THF-DNA]								3	10
